Several values for one entry are separate records, joined by “and”; a condition that tells them apart may be missing. Equal entries are not always repeated.
Conditions: Gas, Buoyancy - hydrostatic balance with magnetic suspension - two sinkers

[He] [helium]
Conditions	mass density
273.16 K, 31577 kPa	47.957 kg/m3 and 47.9575 kg/m3
273.16 K, 31578 kPa	47.9581 kg/m3 and 47.9577 kg/m3
273.16 K, 31775 kPa	48.2167 kg/m3
273.16 K, 31776 kPa	48.2177 kg/m3
273.16 K, 31777 kPa	48.2188 kg/m3
273.16 K, 31778 kPa	48.22 kg/m3
273.16 K, 31779 kPa	48.2215 kg/m3
273.16 K, 31780 kPa	48.2235 kg/m3
273.16 K, 31865 kPa	48.3344 kg/m3 and 48.3352 kg/m3
273.16 K, 31866 kPa	48.3358 kg/m3
273.16 K, 31867 kPa	48.3368 kg/m3 and 48.3375 kg/m3
273.16 K, 32210 kPa	48.7873 kg/m3
273.16 K, 32211 kPa	48.788 kg/m3
273.16 K, 32212 kPa	48.7903 kg/m3 and 48.7886 kg/m3
273.16 K, 32213 kPa	48.7913 kg/m3
273.16 K, 37198 kPa	55.185 kg/m3
273.16 K, 37199 kPa	55.1865 kg/m3
273.16 K, 37200 kPa	55.1874 kg/m3
273.16 K, 37201 kPa	55.1885 kg/m3 and 55.1895 kg/m3
273.16 K, 37514 kPa	55.5816 kg/m3
273.16 K, 37515 kPa	55.5829 kg/m3
273.16 K, 37517 kPa	55.5843 kg/m3
273.16 K, 37518 kPa	55.5858 kg/m3
273.16 K, 37520 kPa	55.5878 kg/m3
273.16 K, 37531 kPa	55.6035 kg/m3
273.16 K, 37536 kPa	55.6095 kg/m3
273.16 K, 37537 kPa	55.6109 kg/m3
273.16 K, 37539 kPa	55.6125 kg/m3
273.16 K, 37540 kPa	55.6136 kg/m3
273.16 K, 38114 kPa	56.3321 kg/m3 and 56.3327 kg/m3
273.16 K, 38115 kPa	56.3338 kg/m3
273.16 K, 38116 kPa	56.335 kg/m3 and 56.3346 kg/m3
293.15 K, 980.1 kPa	1.6025 kg/m3
293.15 K, 980.2 kPa	1.6025 kg/m3 and 1.6026 kg/m3
293.15 K, 1731.6 kPa	2.8204 kg/m3 and 2.8205 kg/m3 and 2.8207 kg/m3
293.15 K, 3908.9 kPa	6.3007 kg/m3 [middle of 5 runs]
293.15 K, 4006.9 kPa	6.4542 kg/m3
293.15 K, 4007 kPa	6.4541 kg/m3 and 6.4543 kg/m3 and 6.4542 kg/m3
293.15 K, 7058 kPa	11.2086 kg/m3
293.15 K, 7058.1 kPa	11.2089 kg/m3 and 11.2088 kg/m3
293.15 K, 7058.2 kPa	11.2089 kg/m3
293.15 K, 7881.3 kPa	12.4696 kg/m3
293.15 K, 7881.6 kPa	12.4701 kg/m3
293.15 K, 7882.1 kPa	12.4707 kg/m3
293.15 K, 7882.6 kPa	12.4715 kg/m3
293.15 K, 7883 kPa	12.4722 kg/m3
293.15 K, 10034 kPa	15.7199 kg/m3
293.15 K, 10035 kPa	15.7202 kg/m3 and 15.7205 kg/m3
293.15 K, 11762 kPa	18.2837 kg/m3 [middle of 5 runs]
293.15 K, 14018 kPa	21.5714 kg/m3 [middle of 8 runs]
293.15 K, 16004 kPa	24.4152 kg/m3
293.15 K, 16005 kPa	24.4156 kg/m3 [middle of 4 runs]
293.15 K, 18018 kPa	27.2473 kg/m3 and 27.2468 kg/m3 and 27.2464 kg/m3
293.15 K, 18019 kPa	27.2479 kg/m3 [middle of 5 runs]
293.15 K, 19905 kPa	29.8586 kg/m3 and 29.8588 kg/m3
293.15 K, 19906 kPa	29.8595 kg/m3 and 29.8599 kg/m3 and 29.8592 kg/m3
293.15 K, 24474 kPa	36.0124 kg/m3 [middle of 4 runs]
293.15 K, 24475 kPa	36.0141 kg/m3 and 36.0137 kg/m3
293.15 K, 24476 kPa	36.0152 kg/m3
293.15 K, 25777 kPa	37.7285 kg/m3
293.15 K, 25778 kPa	37.7301 kg/m3 and 37.7298 kg/m3 and 37.7293 kg/m3
293.15 K, 25779 kPa	37.7309 kg/m3
293.15 K, 29507 kPa	42.5361 kg/m3
293.15 K, 29508 kPa	42.5375 kg/m3 and 42.5373 kg/m3
293.15 K, 29509 kPa	42.5383 kg/m3
293.15 K, 29510 kPa	42.5393 kg/m3 and 42.5394 kg/m3
293.15 K, 29511 kPa	42.5405 kg/m3
293.15 K, 31846 kPa	45.4829 kg/m3
293.15 K, 31847 kPa	45.4837 kg/m3
293.15 K, 31848 kPa	45.4862 kg/m3 and 45.4845 kg/m3
293.15 K, 31850 kPa	45.4879 kg/m3
293.15 K, 38003 kPa	52.9909 kg/m3
293.15 K, 38004 kPa	52.9921 kg/m3
293.15 K, 38005 kPa	52.993 kg/m3
293.15 K, 38006 kPa	52.9944 kg/m3
293.15 K, 38007 kPa	52.9958 kg/m3
293.16 K, 10034 kPa	15.7195 kg/m3
323.15 K, 1780.1 kPa	2.6324 kg/m3 and 2.6323 kg/m3 and 2.6322 kg/m3
323.15 K, 1780.2 kPa	2.6323 kg/m3
323.15 K, 3959.1 kPa	5.7989 kg/m3 and 5.7987 kg/m3
323.15 K, 7974.3 kPa	11.4834 kg/m3 and 11.4836 kg/m3
323.15 K, 7974.4 kPa	11.4837 kg/m3 and 11.4836 kg/m3
323.15 K, 11648 kPa	16.5228 kg/m3 [middle of 5 runs]
323.15 K, 15081 kPa	21.0997 kg/m3
323.15 K, 15082 kPa	21.1007 kg/m3 and 21.1001 kg/m3 and 21.1 kg/m3
323.15 K, 19305 kPa	26.565 kg/m3 and 26.5643 kg/m3 and 26.5647 kg/m3
323.15 K, 19306 kPa	26.5662 kg/m3 and 26.5653 kg/m3
323.15 K, 25679 kPa	34.4876 kg/m3 and 34.4883 kg/m3
323.15 K, 25680 kPa	34.4886 kg/m3 and 34.489 kg/m3 and 34.4895 kg/m3
323.15 K, 31795 kPa	41.7513 kg/m3 and 41.752 kg/m3
323.15 K, 31796 kPa	41.7528 kg/m3
323.15 K, 31797 kPa	41.7536 kg/m3 and 41.7543 kg/m3
323.15 K, 37888 kPa	48.6852 kg/m3
323.15 K, 37889 kPa	48.6863 kg/m3
323.15 K, 37890 kPa	48.6876 kg/m3
323.15 K, 37891 kPa	48.6888 kg/m3
323.15 K, 37892 kPa	48.6904 kg/m3

Source: the NIST ThermoML archive (doi:10.1016/j.jct.2006.09.012)
